Several values for one entry are separate records, joined by “and”; a condition that tells them apart may be missing. Identical values can stand only once. Like-named read-outs stand apart in the source and are kept apart here. One block for each compound: values may come before it.
Experiments:
MCF-7 cells = test: Antiproliferative assay (CELLOMAX viability), MCF-7; format: cell-based, human; conditions: for Emax: MCF7, highest concentration 250 µM, read-out: Imax (%); for Emax / IC50: MCF-7, 48 h; for IC50: read-out: IC50 (µM), antiproliferative activity against MCF-7
Experimental: The MCF-7 cell line was obtained from Korean Cell Line Bank (KCLB, Seoul, Korea). The cells were cultured in vitro in DMEM (Invitrogen, Paisley, UK) containing 10% fetal bovine serum (Gibco, Thermo Fisher Scientific, Waltham, MA, USA) and 1% penicillin. Cells were treated with different concentrations of compounds (1–15) in a 1:3 the highest concentration was 250 µM (before dilution) and further incubated for 48 hrs. […] We evaluated the antiproliferative activity of compound 8 against a variety of cells.
The MCF-7 cell line was obtained from ATCC. The cells were cultured in vitro in DMEM (Invitrogen, Paisley, UK) containing 10% fetal bovine serum (Gibco, Thermo Fisher Scientific, Waltham, MA) and 1% penicillin. For cytotoxicity assays, MCF-7 cells were seeded into 96-well culture plates at […] in 0.1 mL of DMEM and incubated at 37 °C with 5% CO2 and 90% humidity. After 16 h, the cells were treated with drugs (250 μM, serially diluted up to three-fold) for 48 h. Cell viability was measured using the CELLOMAXTM Viability Assay kit (Precaregene Co., Seoul, Korea). UV absorption at 450 nm wavelength was measured using an Infinite M200 microplate reader (Tecan, Zürich, Switzerland). The IC50 values were calculated using Prism v7.0 (GraphPad Software Inc., La Jolla, CA). The inhibitory activity of the tested compounds was evaluated by an 8-point dose–response curve (DRC) analysis in triplicates.

HDAC3 = molecular target: T1, HDAC3 (Homo sapiens, UniProt O15379); test: HDAC enzyme inhibition assay, HDAC3; format: biochemical; conditions: read-out: IC50 (µM) HDAC3 (Class I)
T1 construct: purchased PBS Biosciences [sic]
Experimental: (§1) The compounds were diluted to the indicated concentrations and mixed with HDAC enzymes (HDAC1, HDAC3, HDAC6, HDAC8, HDAC11) and the substrate for 1 h (PBS Biosciences). The fluorescence intensity was measured according to the manufacturer’s instructions.

HDAC8 = molecular target: T2, HDAC8 (Homo sapiens, UniProt Q9BY41); test: HDAC enzyme inhibition assay, HDAC8; format: biochemical; conditions: read-out: IC50 (µM) HDAC8 (Class I)
T2 construct: purchased PBS Biosciences [sic]
T2 sequence (Q9BY41 1-377): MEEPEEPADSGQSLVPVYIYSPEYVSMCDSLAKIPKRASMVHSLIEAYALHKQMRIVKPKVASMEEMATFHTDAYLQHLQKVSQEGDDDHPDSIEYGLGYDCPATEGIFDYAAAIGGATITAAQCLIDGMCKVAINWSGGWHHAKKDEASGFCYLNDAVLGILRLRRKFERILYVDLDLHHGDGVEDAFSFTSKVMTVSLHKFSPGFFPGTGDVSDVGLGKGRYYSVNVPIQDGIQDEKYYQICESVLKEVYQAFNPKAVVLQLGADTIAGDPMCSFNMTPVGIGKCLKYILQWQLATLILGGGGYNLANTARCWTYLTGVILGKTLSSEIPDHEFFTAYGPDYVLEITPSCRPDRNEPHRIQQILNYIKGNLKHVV
Experimental: as §1

HDAC4 = molecular target: T3, HDAC4 (Homo sapiens, UniProt P56524); test: HDAC enzyme inhibition assay, HDAC4; format: biochemical; conditions: read-out: IC50 (µM) HDAC4 (Class IIa)
T3 construct: purchased PBS Biosciences [sic]

HDAC6 = molecular target: T4, HDAC6 (Homo sapiens, UniProt Q9UBN7); test: HDAC enzyme inhibition assay, HDAC6; format: biochemical
T4 construct: purchased PBS Biosciences [sic]
T4 sequence (Q9UBN7 1-1215): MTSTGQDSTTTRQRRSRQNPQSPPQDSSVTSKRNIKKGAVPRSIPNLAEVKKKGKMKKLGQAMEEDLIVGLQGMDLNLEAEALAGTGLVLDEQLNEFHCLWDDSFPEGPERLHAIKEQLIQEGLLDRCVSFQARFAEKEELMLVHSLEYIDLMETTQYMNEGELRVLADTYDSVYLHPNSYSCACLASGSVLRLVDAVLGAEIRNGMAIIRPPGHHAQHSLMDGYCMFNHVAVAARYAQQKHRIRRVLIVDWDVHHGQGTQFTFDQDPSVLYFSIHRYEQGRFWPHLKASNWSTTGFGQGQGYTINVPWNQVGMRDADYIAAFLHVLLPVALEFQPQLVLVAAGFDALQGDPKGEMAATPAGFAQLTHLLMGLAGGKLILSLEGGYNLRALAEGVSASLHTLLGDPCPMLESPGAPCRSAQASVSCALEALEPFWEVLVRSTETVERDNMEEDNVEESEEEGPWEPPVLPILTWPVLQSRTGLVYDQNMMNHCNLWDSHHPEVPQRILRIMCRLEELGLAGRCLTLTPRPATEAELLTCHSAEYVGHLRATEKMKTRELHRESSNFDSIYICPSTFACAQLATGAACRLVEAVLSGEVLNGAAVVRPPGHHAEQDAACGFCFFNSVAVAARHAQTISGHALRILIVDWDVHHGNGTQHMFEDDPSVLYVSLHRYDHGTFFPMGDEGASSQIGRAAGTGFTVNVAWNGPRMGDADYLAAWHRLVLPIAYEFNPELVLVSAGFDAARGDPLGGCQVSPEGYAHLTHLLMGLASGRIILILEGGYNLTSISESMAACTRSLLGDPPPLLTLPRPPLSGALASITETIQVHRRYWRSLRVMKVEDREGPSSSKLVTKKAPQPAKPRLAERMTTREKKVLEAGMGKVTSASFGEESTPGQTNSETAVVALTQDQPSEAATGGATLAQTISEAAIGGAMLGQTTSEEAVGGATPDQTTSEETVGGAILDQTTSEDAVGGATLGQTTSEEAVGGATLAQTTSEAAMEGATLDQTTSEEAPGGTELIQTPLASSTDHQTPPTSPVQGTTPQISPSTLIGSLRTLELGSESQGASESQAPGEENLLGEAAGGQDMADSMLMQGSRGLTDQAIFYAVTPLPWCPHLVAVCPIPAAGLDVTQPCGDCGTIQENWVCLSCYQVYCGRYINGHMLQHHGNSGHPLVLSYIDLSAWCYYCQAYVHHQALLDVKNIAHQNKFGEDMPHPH
Experimental: as §1

HDAC11 = molecular target: T5, HDAC11 (Homo sapiens, UniProt Q96DB2); test: HDAC enzyme inhibition assay, HDAC11; format: biochemical
T5 construct: purchased PBS Biosciences [sic]
T5 sequence (Q96DB2 1-347): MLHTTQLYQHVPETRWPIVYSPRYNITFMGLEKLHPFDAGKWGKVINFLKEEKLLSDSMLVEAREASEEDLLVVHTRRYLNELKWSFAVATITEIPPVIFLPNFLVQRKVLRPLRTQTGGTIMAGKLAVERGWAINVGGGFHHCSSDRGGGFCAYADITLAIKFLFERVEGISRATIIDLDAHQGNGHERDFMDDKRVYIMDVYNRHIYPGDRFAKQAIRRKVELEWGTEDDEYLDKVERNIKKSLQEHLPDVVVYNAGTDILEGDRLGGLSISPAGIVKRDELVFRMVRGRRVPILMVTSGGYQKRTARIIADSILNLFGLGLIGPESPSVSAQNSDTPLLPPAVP
Experimental: as §1

[1] = system: acetylated tubulin (HDAC6 substrate) in MCF-7 cells; test: Western blot of acetylated tubulin in MCF-7; format: cell-based, human
Experimental: (§2) MCF-7 and N2a cell lines were incubated with various concentrations of test agents for 6 h. Cell lysis and Western blot analyses were performed as previously described. Anti-acetylated tubulin antibody and horseradish peroxidase (HRP)-conjugated secondary antibodies (Santa Cruz Biotechnology) were used. Immunoreactive bands were visualized using enhanced chemiluminescence (Millipore, Burlington, MA, USA).
(§3) GAPDH was used as a loading control.

[2] = system: acetylated tubulin (HDAC6 substrate) in N2a cells; test: Western blot of acetylated tubulin in N2a; format: cell-based; conditions: 6 h, 10, 2, and 0.2 µM
Experimental: as §2, §3

MDA-MB 231 cells = test: Antiproliferation, MDA-MB 231; format: cell-based; conditions: Homo sapiens, Breast
EMT 6 cells = test: Antiproliferation, EMT 6; format: cell-based; conditions: Mus musculus, EMT6; Breast
N2A cells = test: Antiproliferation, N2A; format: cell-based; conditions: Mus musculus, Brain
Hepa1c1c7 cells = test: Antiproliferation, Hepa1c1c7; format: cell-based; conditions: Hepa-1c1c7; Liver
SKOV3 cells = test: Antiproliferation, SKOV3; format: cell-based; conditions: Homo sapiens, SK-OV-3; Ovarian
SW620 cells = test: Antiproliferation, SW620; format: cell-based; conditions: Homo sapiens, SW-620; Colon
PANC1 cells = test: Antiproliferation, PANC1; format: cell-based; conditions: Homo sapiens, PANC-1; Pancreas

T3 sequence (P56524 whole entry): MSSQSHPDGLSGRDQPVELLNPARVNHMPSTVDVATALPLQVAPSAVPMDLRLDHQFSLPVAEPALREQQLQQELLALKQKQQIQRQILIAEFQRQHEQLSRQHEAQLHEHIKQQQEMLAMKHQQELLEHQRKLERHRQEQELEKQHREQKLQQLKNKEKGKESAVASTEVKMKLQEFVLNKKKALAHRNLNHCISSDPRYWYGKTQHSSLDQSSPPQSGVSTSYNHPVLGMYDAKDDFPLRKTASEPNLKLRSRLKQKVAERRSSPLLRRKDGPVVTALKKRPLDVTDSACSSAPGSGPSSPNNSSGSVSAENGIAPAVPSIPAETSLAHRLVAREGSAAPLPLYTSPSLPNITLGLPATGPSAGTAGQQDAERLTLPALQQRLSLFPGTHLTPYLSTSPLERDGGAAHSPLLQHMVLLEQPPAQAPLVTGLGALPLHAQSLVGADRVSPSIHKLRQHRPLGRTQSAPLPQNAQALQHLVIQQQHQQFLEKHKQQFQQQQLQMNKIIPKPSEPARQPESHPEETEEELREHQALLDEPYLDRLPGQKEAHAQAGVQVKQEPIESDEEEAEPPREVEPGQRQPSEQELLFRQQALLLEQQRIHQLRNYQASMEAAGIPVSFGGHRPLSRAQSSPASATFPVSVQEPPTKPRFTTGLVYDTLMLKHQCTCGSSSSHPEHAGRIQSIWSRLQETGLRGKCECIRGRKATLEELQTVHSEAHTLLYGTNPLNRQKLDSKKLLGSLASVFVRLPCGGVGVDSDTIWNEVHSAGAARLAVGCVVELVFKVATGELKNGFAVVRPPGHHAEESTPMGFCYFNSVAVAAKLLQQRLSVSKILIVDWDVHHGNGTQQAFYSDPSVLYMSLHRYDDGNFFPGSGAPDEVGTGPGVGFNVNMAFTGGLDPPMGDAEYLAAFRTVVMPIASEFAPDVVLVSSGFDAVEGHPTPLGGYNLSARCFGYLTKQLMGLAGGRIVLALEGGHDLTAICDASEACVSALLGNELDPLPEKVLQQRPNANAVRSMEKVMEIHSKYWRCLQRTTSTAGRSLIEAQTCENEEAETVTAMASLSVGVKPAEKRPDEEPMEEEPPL
T1 sequence (O15379 whole entry): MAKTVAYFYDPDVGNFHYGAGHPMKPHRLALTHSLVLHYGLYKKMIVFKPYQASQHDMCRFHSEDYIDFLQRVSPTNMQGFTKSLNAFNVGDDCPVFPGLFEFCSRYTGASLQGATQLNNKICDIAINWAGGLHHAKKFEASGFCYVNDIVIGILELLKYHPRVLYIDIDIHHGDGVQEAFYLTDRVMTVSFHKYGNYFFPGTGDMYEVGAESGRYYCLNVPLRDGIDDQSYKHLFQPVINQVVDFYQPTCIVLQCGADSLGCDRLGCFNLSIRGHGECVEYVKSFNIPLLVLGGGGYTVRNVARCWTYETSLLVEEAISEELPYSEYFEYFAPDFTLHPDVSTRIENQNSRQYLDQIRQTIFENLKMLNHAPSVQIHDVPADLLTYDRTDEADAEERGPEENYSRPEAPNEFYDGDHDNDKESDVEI
T1 sequence (Q9Y618 395-489 partner limits assumed): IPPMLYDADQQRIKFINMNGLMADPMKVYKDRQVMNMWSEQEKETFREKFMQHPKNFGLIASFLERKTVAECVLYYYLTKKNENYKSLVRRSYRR

IC50 (MCF-7 cells; Homo sapiens, MCF7, 48 h): 3.4 µM
IC50 (MCF-7 cells): 3.44 ± 1.11 µM
IC50 (HDAC3): 2.7 ± 0.08 µM
IC50 (HDAC8): 0.8 ± 0.01 µM
IC50 (HDAC4): > 10 µM
Selective Fold (Ratio) HDAC3/ HDAC6 (HDAC6; ratio of IC50): 7.9 fold and 7.94 fold
Selective Fold (Ratio) HDAC4/ HDAC6 (HDAC6; ratio of IC50): >29.4 fold
Selective Fold (Ratio) HDAC8/ HDAC6 (HDAC6; ratio of IC50): 2.3 fold and 2.32 fold
Selective Fold (Ratio) HDAC11/ HDAC6 (HDAC6; ratio of IC50): >29.4 fold
IC50 (HDAC6; read-out: IC50 (µM) HDAC6 (Class IIb)): 2.3 µM and 0.3 µM
IC50 (HDAC11; read-out: IC50 (µM) HDAC11 (Class IV)): ~3 µM
IC50 (MDA-MB 231 cells): 0.51 ± 0.02 µM
IC50 (SKOV3 cells): 4.5 ± 0.1 µM
IC50 (SW620 cells): 0.81 ± 0.01 µM
IC50 (PANC1 cells): 12.8 ± 0.75 µM
melting point: 138 to 140 °C
Compound: O=C(CCCCSc1nc2ccccc2c(=O)n1Cc1ccc(F)cc1)NO [Compound 8]
Emax (MCF-7 cells; Homo sapiens): 90.6%
HDAC11 inhibition compared to Belinostat (in words) (HDAC11; dose-dependent): higher activity against HDAC11 compared to the reference
acetylation level of tubulin (Western blot) at 10 µM ([1]; 10 µM, cell line not named): increased acetylation level of tubulin
acetylation of tubulin (Western blot) ([1]; MCF-7, 6 h, 10, 2, and 0.2 µM): induced acetylated tubulin levels in a dose-dependent manner
acetylation of tubulin (Western blot) [2]: induced acetylated tubulin levels in a dose-dependent manner
IC50 (EMT 6 cells): 1.3 ± 0.3 µM
IC50 (N2A cells): 3.2 ± 0.1 µM
IC50 (Hepa1c1c7 cells): 1.3 ± 0.2 µM

IC50 (MCF-7 cells; Homo sapiens, MCF7, 48 h): 36.9 ± 1.12 µM
melting point: 145 to 147 °C
Compound: O=C(CCCCSc1nc2ccccc2c(=O)n1Cc1cccc(F)c1)NO [Compound 9]
Emax (MCF-7 cells; Homo sapiens): 96.8%
antiproliferative activity (in words) (MCF-7 cells; MCF-7): loss of activity

IC50 (MCF-7 cells; Homo sapiens, MCF7, 48 h): 37.3 ± 1.21 µM
melting point: 173 to 175 °C
Compound: COc1ccc(-c2nc3ccccc3c(=O)n2CCCCC(=O)NO)cc1 [Compound 13]
Emax (MCF-7 cells; Homo sapiens): 95.8%

melting point: 120 to 122 °C
Compound: O=C(CN1CCN(CCn2c(-c3ccc(F)cc3)nc3ccccc3c2=O)CC1)NO [Compound 11]

melting point: 184 to 186 °C
Compound: Cc1ccc(Cn2c(SCC(=O)NO)nc3ccccc3c2=O)cc1 [Compound 6]
Emax (MCF-7 cells; Homo sapiens): 22%

IC50 (MCF-7 cells; Homo sapiens, MCF7, 48 h): 14.2 ± 1.14 µM
melting point: 180 to 182 °C
Compound: O=C(CCCCSc1nc2ccccc2c(=O)n1Cc1ccc(-c2ccccc2)cc1)NO [Compound 10]
Emax (MCF-7 cells; Homo sapiens): 89.7%

melting point: 195 to 197 °C
Compound: O=C(CCCCn1c(-c2ccco2)nc2ccccc2c1=O)NO [Compound 15]
Emax (MCF-7 cells; Homo sapiens): 1.5%

IC50 (MCF-7 cells; Homo sapiens, MCF7, 48 h): 37.9 ± 1.71 µM
melting point: 156 to 158 °C
Compound: O=C(CCCCn1c(-c2ccc(F)cc2)nc2ccccc2c1=O)NO [Compound 14]
Emax (MCF-7 cells; Homo sapiens): 100%

The next lines start with the compound.

Compound: O=C(CSc1nc2ccccc2c(=O)n1Cc1ccc(F)c(F)c1)NO [Compound 4]
Emax (MCF-7 cells; Homo sapiens): 23%
melting point: 184 to 186 °C

Compound: O=C(/C=C/c1cccc(S(=O)(=O)Nc2ccccc2)c1)NO [Belinostat, reference compound]
IC50 (MCF-7 cells; Homo sapiens, MCF7, 48 h): 2.6 ± 1.4 µM
Emax (MCF-7 cells; Homo sapiens): 100%
IC50 (HDAC4): 2.7 ± 0.12 µM
IC50 (HDAC6; IC50 (µM) HDAC6 (Class IIb)): 0.2 ± 0.01 µM
IC50 (MDA-MB 231 cells): 3.72 ± 0.5 µM
IC50 (EMT 6 cells): 11.3 ± 2.6 µM
IC50 (N2A cells): 3.66 ± 0.7 µM
IC50 (Hepa1c1c7 cells): 10.1 ± 0.9 µM
IC50 (SKOV3 cells): 32.1 ± 5.5 µM
IC50 (SW620 cells): 14.9 ± 1.2 µM
IC50 (PANC1 cells): 15.7 ± 2.3 µM

Compound: O=C(CSc1nc2ccccc2c(=O)n1Cc1ccccc1[N+](=O)[O-])NO [Compound 5]
Emax (MCF-7 cells; Homo sapiens): 17%
melting point: 176 to 179 °C

Compound: O=C(CSc1nc2ccccc2c(=O)n1Cc1cccc(F)c1)NO [Compound 3]
Emax (MCF-7 cells; Homo sapiens): 24%
melting point: 177 to 180 °C

Compound: O=C(CSc1nc2ccccc2c(=O)n1Cc1ccccc1)NO [Compound 1]
Emax (MCF-7 cells; Homo sapiens): 20%
melting point: 188 to 191 °C

Compound: O=C(CSc1nc2ccccc2c(=O)n1Cc1ccc(F)cc1)NO [Compound 2]
Emax (MCF-7 cells; Homo sapiens): 11%

Reference: paper PMC9000625, “Target Design of Novel Histone Deacetylase 6 Selective Inhibitors with 2-Mercaptoquinazolinone as the Cap Moiety” (Molecules, 2022)
